In patent US20260083708A1, “IL-17 MODULATORS AND USES THEREOF” (NNOCARE PHARMA INC., priority 2024, published 2026):

Tests used:
[1] = target: T1, IL-17AA and IL-17RA (Homo sapiens, UniProt Q16552); assay: Competitive inhibition of human IL-17AA and IL-17RA binding (HTRF); details: recombinant IL-17AA (His-tag) and IL-17RA (hFc-tag); read-out: IC50 for Inhibiting IL-AA/IL-RA Binding
T1 construct: purchased Sino Biological 12047-H07B (IL-17AA); 10895-H02H (IL-17RA)
T1 sequence (Q16552 24-155): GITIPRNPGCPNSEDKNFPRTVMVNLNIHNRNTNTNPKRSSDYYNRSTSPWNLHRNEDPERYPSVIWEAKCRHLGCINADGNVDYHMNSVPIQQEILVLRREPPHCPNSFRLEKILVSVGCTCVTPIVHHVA
Protocol: Example 42. Competitive Inhibition of Human IL-17AA and IL-17RA Binding
Recombinant IL-17AA (His-tag, Catalog Number 12047-H07B) and IL-17RA (hFc-tag, Catalog Number 10895-H02H) were purchased from Sino Biological. In the experiment, 10 μL of IL-17AA (1 nM) or IL-17RA (1 nM) was added to 10 μL of anti-6His-Tb (0.4 nM, Revvity, Catalog Number 61HISTLF) or anti-human IgG-d2 (1 μg/mL, anti-human IgG-d2, Revvity, Catalog Number 61HFCDAF), respectively and incubated at room temperature for 1 hour. Compounds were serially diluted starting from 10 μM. 5 μL of each compound solution was incubated with 5 μL of a mixture of IL-17AA and anti-6His-Tb at room temperature for 2 hours. After pre-incubation, to which was added 10 μL of a mixture of IL-17RA and anti-human IgG-d2, and incubation was continued for additional 20 minutes. Subsequently, a microplate reader (Envision, PerkinElmer) was used to detect fluorescence intensity at 615 nm and 665 nm, and the ratio of intensity thereof indicates the degree of IL-17AA and IL-17RA interaction. The ratio of intensity in the absence of tested compound was the highest value of binding between IL-17AA and IL-17RA, and the ratio of intensity in the absence of IL-17AA was the lowest value.
(§1) Therefore, the percentage of inhibition of tested compound was calculated as
Experimental results were analyzed using XLfit (IDBS) for 4-parameter nonlinear fitting analysis, to provide the IC50 value for each tested compound (Table 1).

[2] = system: IL-17AF-induced IL-17 signaling pathway; assay: Inhibition of IL-17AF-induced IL-17 signaling pathway; format: cell-based; details: Homo sapiens; IL-17AF used instead of IL-17AA; read-out: IC50 for Inhibiting IL-AF Signaling
Excerpt: (§2) Interleukin-17 (IL-17) reporter cell line (HEK-Blue IL-17, InvivoGen, Catalog Number hkb-i117) is created by genetically engineering human IL-17RA/IL-17RC heterodimeric receptor and downstream adapter protein ACT1 into human embryonic kidney 293 cells (HEK293). These cells also express secreted embryonic alkaline phosphatase (SEAP) reporter gene induced by NF-κB and AP-1. Therefore, IL-17AA can activate NF-κB and AP-1 signaling pathways inside the cells by binding to IL-17RA/RC on cell membrane, leading to expression of SEAP protein. After a colorimetric reaction between SEAP protein and Quanti-Blue solution, the absorbance at 620 nm is measured using a microplate reader (BioTek H1M, Agilent, Catalog Number SH1M-SN) to determine IL-17AA-activated signaling pathway.
(§3) In the experiment, HEK-Blue IL-17 cells were cultured at 37° C. under 5% CO2 conditions using the recommended medium from InvivoGen's instruction. Compounds were serially diluted starting from 10 μM. 4 μL of each compound solution was added to 32 μL of cells (10,000 cells) at 37° C. for 1 hour. After pre-incubation, 4 μL of IL-17AA with a final concentration of 2.5 ng/mL (Sino Biological, Catalog Number 12047-HNAS) was added to the cells, and incubation was continued for additional 20 hours. After incubation, 5 μL of cell culture supernatant was added to 45 μL of Quanti-Blue for the colorimetric reaction. The group without tested compound had the highest absorbance at 620 nm, and the group without IL-17AA had the lowest absorbance at 620 nm.
as §1
(§4) Experimental results were analyzed using XLfit (IDBS) for 4-parameter nonlinear fitting analysis to provide the IC50 value for each tested compound (Table 1).
Example 44. Inhibition of IL-17AF-Induced IL-17 Signaling Pathway
The same experimental procedure to Example […] was followed where IL-17AF was used instead of IL-17AA.

[3] = system: IL-17AA-induced IL-17 signaling pathway; assay: Inhibition of IL-17AA-induced IL-17 signaling pathway in HEK-Blue IL-17 reporter cells (SEAP); format: cell-based; details: Homo sapiens; HEK-Blue IL-17 cells, IL-17AA 2.5 ng/mL, 20 hours; read-out: IC50 for Inhibiting IL-AA Signaling
Excerpt: Example 43. Inhibition of IL-17AA-Induced IL-17 Signaling Pathway
as §2, §3, §1, §4

| IC50 [1] [nM] | IC50 [2] [nM] | IC50 [3] [nM] | Compound |
| --- | --- | --- | --- |
| 40 | 216 | 67 | COCC(=O)N[C@@H](c1nncn1CC1CC1)[C@@H](C)c1ccc(NC(=O)[C@@H](NC(=O)COc2cc(C(F)F)ccn2)C(C2CC2)C2CC2)c(F)c1 [Compound 13, (S)-3,3-dicyclopropyl-N-(4-((1R,2S)-1-(4-(cyclopropylmethyl)-4H-1,2,4-triazol-3-yl)-1-(2-methoxyacetamido)propan-2-yl)-2-fluorophenyl)-2-(2-((4-(difluoromethyl)pyridin-2-yl)oxy)acetamido)propanamide] |
| 23 | 228 | 143 | [2H]C([2H])([2H])n1ccc(C(=O)N[C@H](C(=O)Nc2ccc([C@H](C)[C@@H](NC(=O)CC)c3ncnn3CC3CC3)cc2F)C(C2CC2)C2CC2)n1 [Compound 86, N-((S)-1,1-dicyclopropyl-3-((4-((1R,2S)-1-(1-(cyclopropylmethyl)-1H-1,2,4-triazol-5-yl)-1-propionamidopropan-2-yl)-2-fluorophenyl)amino)-3-oxopropan-2-yl)-1-(methyl-d3)-1H-pyrazole-3-carboxamide] |
| 182 | 2730 | 2220 | CCn1nccc1C(=O)N[C@H](C(=O)Nc1ccc([C@H](C)[C@@H](NC(=O)COC)c2ncnn2CCN2CCN(C)CC2)cc1F)C(C1CC1)C1CC1 [Compound 52, N-((S)-1,1-dicyclopropyl-3-((2-fluoro-4-((1R,2S)-1-(2-methoxyacetamido)-1-(1-(2-(4-methylpiperazin-1-yl)ethyl)-1H-1,2,4-triazol-5-yl)propan-2-yl)phenyl)amino)-3-oxopropan-2-yl)-1-ethyl-1H-pyrazole-5-carboxamide] |
| 40 | 210 | 142 | Cc1nonc1C(=O)N[C@H](C(=O)Nc1ccc([C@H](C)[C@@H](NC(=O)COC2CNC2)c2ncnn2CC2CC2)cc1F)C(C1CC1)C1CC1 [Compound 55, N-((S)-1-((4-((1R,2S)-1-(2-(azetidin-3-yloxy)acetamido)-1-(1-(cyclopropylmethyl)-1H-1,2,4-triazol-5-yl)propan-2-yl)-2-fluorophenyl)amino)-3,3-dicyclopropyl-1-oxopropan-2-yl)-4-methyl-1,2,5-oxadiazole-3-carboxamide] |
| 11 | 13 | 6.9 | CCCn1ncnc1[C@H](NC(=O)COC)[C@@H](C)c1ccc(NC(=O)[C@@H](NC(=O)c2ccnn2CC)C(C2CC2)C2CC2)c(F)c1 [Compound 31, N-((S)-1,1-dicyclopropyl-3-((2-fluoro-4-((1R,2S)-1-(2-methoxyacetamido)-1-(1-propyl-1H-1,2,4-triazol-5-yl)propan-2-yl)phenyl)amino)-3-oxopropan-2-yl)-1-ethyl-1H-pyrazole-5-carboxamide] |
| 1.1 | 8.1 | 6.1 | [2H]C([2H])([2H])C([2H])([2H])C(=O)N[C@@H](c1ncnn1CC1CC1)[C@@H](C)c1ccc(NC(=O)[C@@H](NC(=O)c2nonc2C)C(C2CC2)C2CC2)c(F)c1 [Compound 75, N-((S)-1,1-dicyclopropyl-3-((4-((1R,2S)-1-(1-(cyclopropylmethyl)-1H-1,2,4-triazol-5-yl)-1-(propanamido-2,2,3,3,3-d5)propan-2-yl)-2-fluorophenyl)amino)-3-oxopropan-2-yl)-4-methyl-1,2,5-oxadiazole-3-carboxamide] |
| 0.9 | 3.2 | 2 | CCc1nonc1C(=O)N[C@H](C(=O)Nc1ccc([C@H](C)[C@@H](NC(=O)COC)c2nnnn2CC2CC2)cc1F)C(C1CC1)C1CC1 [Compound 29, N-((S)-1,1-dicyclopropyl-3-((4-((1R,2S)-1-(1-(cyclopropylmethyl)-1H-tetrazol-5-yl)-1-(2-methoxyacetamido)propan-2-yl)-2-fluorophenyl)amino)-3-oxopropan-2-yl)-4-ethyl-1,2,5-oxadiazole-3-carboxamide] |
| 17 | 51 | 14 | CCn1nccc1C(=O)N[C@H](C(=O)Nc1ccc([C@H](C)[C@@H](NC(=O)COC)c2nnc(C)n2CC2CC2)cc1F)C(C1CC1)C1CC1 [Compound 18, N-((S)-1,1-dicyclopropyl-3-((4-((1R,2S)-1-(4-(cyclopropylmethyl)-5-methyl-4H-1,2,4-triazol-3-yl)-1-(2-methoxyacetamido)propan-2-yl)-2-fluorophenyl)amino)-3-oxopropan-2-yl)-1-ethyl-1H-pyrazole-5-carboxamide] |
| 165 | 810 | 539 | [2H]C([2H])([2H])n1nccc1C(=O)N[C@@H](C(=O)Nc1ccc([C@H](C)[C@@H](NC(=O)CC)c2ncnn2CC2CC2)cc1F)C(C1CC1)C1CC1 [Compound 85, N-((R)-1,1-dicyclopropyl-3-((4-((1R,2S)-1-(1-(cyclopropylmethyl)-1H-1,2,4-triazol-5-yl)-1-propionamidopropan-2-yl)-2-fluorophenyl)amino)-3-oxopropan-2-yl)-1-(methyl-d3)-1H-pyrazole-5-carboxamide] |
| 4.5 | 16 | 9.4 | CCC(=O)N[C@@H](c1ncn(CC2CC2)n1)[C@@H](C)c1ccc(NC(=O)[C@@H](NC(=O)c2nonc2C)C(C2CC2)C2CC2)c(F)c1 [Compound 81, N-((S)-1,1-dicyclopropyl-3-((4-((1R,2S)-1-(1-(cyclopropylmethyl)-1H-1,2,4-triazol-3-yl)-1-propionamidopropan-2-yl)-2-fluorophenyl)amino)-3-oxopropan-2-yl)-4-methyl-1,2,5-oxadiazole-3-carboxamide] |
| 7.3 | 25 | 4.1 | CCn1nccc1C(=O)N[C@H](C(=O)Nc1ccc([C@H](C)[C@@H](NC(=O)COC)c2nncn2CC2CC2)cc1F)C(C1CC1)C1CC1 [Compound 3, N-((S)-1,1-dicyclopropyl-3-((4-((1R,2S)-1-(4-(cyclopropylmethyl)-4H-1,2,4-triazol-3-yl)-1-(2-methoxyacetamido)propan-2-yl)-2-fluorophenyl)amino)-3-oxopropan-2-yl)-1-ethyl-1H-pyrazole-5-carboxamide] |
| 12 | 99 | 50 | CCn1nccc1C(=O)N[C@H](C(=O)Nc1ccc([C@H](C)[C@@H](NC(C)=O)c2nncn2CC2CC2)cc1F)C(C1CC1)C1CC1 [Compound 2, N-((S)-1-((4-((1R,2S)-1-acetamido-1-(4-(cyclopropylmethyl)-4H-1,2,4-triazol-3-yl)propan-2-yl)-2-fluorophenyl)amino)-3,3-dicyclopropyl-1-oxopropan-2-yl)-1-ethyl-1H-pyrazole-5-carboxamide] |
| 57 | 313 | 115 | CCn1nccc1C(=O)N[C@H](C(=O)Nc1ccc([C@H](C)[C@@H](NC(=O)COC)c2nc(C)nn2CC2CC2)cc1F)C(C1CC1)C1CC1 [Compound 25, N-((S)-1,1-dicyclopropyl-3-((4-((1R,2S)-1-(1-(cyclopropylmethyl)-3-methyl-1H-1,2,4-triazol-5-yl)-1-(2-methoxyacetamido)propan-2-yl)-2-fluorophenyl)amino)-3-oxopropan-2-yl)-1-ethyl-1H-pyrazole-5-carboxamide] |
